Measurements as given in patent US4723004A, “Cephem compounds” (priority 1984, dated 1988).
Entries after “also recorded” stand apart in the source; their conditions may differ. Where two headings read alike, the source gives them in different places.

Assays:
Escherichia coli CP 13 = experiment: Antibacterial spectrum, growth inhibition zone (Table 4); format: cell-based; details: CP13, E. coli CP 13, compound (II) 1000 μg/ml, pH 7.0, sodium salt, read-out: Diameter of growth inhibition zone
Description: (§1) Culture medium: Nutrient agar medium (pH 7.0) containing diaminopimeric
(§2) Concentration of the compound (II): 1000 μg/ml.

[1] = tested on: Pseudomonas aeruginosa C141; experiment: as above; format: cell-based; details: compound (II) 1000 μg/ml, pH 7.0, sodium salt, read-out: Diameter of growth inhibition zone
Description: as §1, §2

[2] = tested on: Staphylococcus aureus FDA 209P; experiment: as above; format: cell-based; details: FDA209P, compound (II) 1000 μg/ml, pH 7.0, sodium salt, read-out: Diameter of growth inhibition zone
Description: as §1, §2

β-lactamases = experiment: Stability to β-lactamases (statement in words); format: cell-based
[3] = Stability in aqueous solution; format: physicochemical; details: for Stability: hydrochloride(s)
Cephalosporinase [4] = target: T1, Cephalosporinase (Enterobacter cloacae, UniProt P05364); experiment: Stability to β-lactamases, disc method, cephalosporinase (Table 5); format: cell-based; details: cephalosporinase 0.025 unit/ml, P. aeruginosa C141
T1 construct: host or cells: Enterobacter cloacae
Description: (§3) Concentration of the compound (II) 1000 μg/ml
(§4) Concentration of the other compounds: 100 μg/ml
(§5) Strain used: Pseudomonas aeruginosa C141
as §1
(Note 4) The enzyme is derived from Enterobacter cloacae, 0.025 unit/ml.

[5] = Acute toxicity, subcutaneous administration to mice; format: in vivo; details: for toxicity: conclusion from 1 g/kg s.c. in mice; for death: mice, subcutaneous, 1 g/kg, sodium salt
Penicillinase [6] = target: T2, Penicillinase (Bacillus cereus, UniProt P10424); experiment: Stability to β-lactamases, disc method, penicillinase (Table 5); format: cell-based; details: penicillinase 0.048 unit/ml, P. aeruginosa C141
T2 construct: purchased Calbio Chemical, U.S.A; host or cells: Bacillus cereus
Description: as §3, §4, §5, §1
(Note 3) Penicillinase (Calbio Chemical, U.S.A.) derived from Bacillus

gram-negative bacteria = experiment: Antibacterial activity against gram-negative bacteria (statement in words); format: cell-based
[7] = tested on: Pseudomonas aeruginosa C141; experiment: Stability to β-lactamases, disc method, non-added control (Table 5); format: cell-based; details: read-out: Diameter of growth inhibition zone (by the disc method); for zone of inhibition at 100 µg/mL: P. aeruginosa C141, other compounds 100 μg/ml
Description: as §3, §4, §5, §1

Penicillinase [8] = target: T2, Penicillinase; experiment: Stability to β-lactamases, disc method, penicillinase (Table 2); format: cell-based; details: penicillinase 0.048 unit/ml; E. coli PG8; compound 100 g/ml (so in the source)
Description: (§6) Note: Used concentration of the compound; 100 µg/ml Employed strain;
(§7) Escherichia coli PG8 Culture medium; Nutrient agar medium (pH 7.0)
(§8) containing diaminopimelic acid (20 mg/l)
(Note 2) Penicillinase derived from Bacillus cereus (produced by Calbio
Chemical, U.S.A.)0.048 unit/ml.

[9] = tested on: Bacillus subtilis NIHJ PCI219; experiment: MIC, antibacterial spectrum (nutrient agar); format: cell-based; details: NIHJPCI219, nutrient agar pH 7.0, 10^6 CFU/ml, sodium salt, read-out: Minimal inhibitory concentration
Text: (§9) | Culture medium: Nutrient agar (pH 7.0) concentration of microorganisms | inoculated: 10^6 CFU (colony forming unit)/ml.

[10] = tested on: Serratia marcescens IFO 12648; experiment: MIC, antibacterial spectrum (nutrient agar); format: cell-based; details: IFO12648, nutrient agar pH 7.0, 10^6 CFU/ml, sodium salt, read-out: Minimal inhibitory concentration
Text: as §9

[11] = tested on: Klebsiella pneumoniae IFO 3317; experiment: MIC, antibacterial spectrum (nutrient agar); format: cell-based; details: IFO3317, nutrient agar pH 7.0, 10^6 CFU/ml, sodium salt, read-out: Minimal inhibitory concentration
Text: as §9

[12] = tested on: Escherichia coli NIHJ JC-2; experiment: MIC, antibacterial spectrum (nutrient agar); format: cell-based; details: NIHJJC2, nutrient agar pH 7.0, 10^6 CFU/ml, sodium salt, read-out: Minimal inhibitory concentration
Text: as §9

[13] = tested on: Bacillus megaterium IFO 12108; experiment: MIC, antibacterial spectrum (nutrient agar); format: cell-based; details: Priestia megaterium, IFO12108, nutrient agar pH 7.0, 10^6 CFU/ml, sodium salt, read-out: Minimal inhibitory concentration
Text: as §9

[14] = tested on: Proteus mirabilis ATCC 21100; experiment: MIC, antibacterial spectrum (nutrient agar); format: cell-based; details: ATCC21100, nutrient agar pH 7.0, 10^6 CFU/ml, sodium salt, read-out: Minimal inhibitory concentration
Text: as §9

[15] = tested on: Proteus vulgaris IFO 3988; experiment: MIC, antibacterial spectrum (nutrient agar); format: cell-based; details: IFO3988, nutrient agar pH 7.0, 10^6 CFU/ml, sodium salt, read-out: Minimal inhibitory concentration
Text: as §9

[16] = tested on: Pseudomonas aeruginosa IFO 3080; experiment: MIC, antibacterial spectrum (nutrient agar); format: cell-based; details: IFO3080, nutrient agar pH 7.0, 10^6 CFU/ml, sodium salt, read-out: Minimal inhibitory concentration
Text: as §9

[17] = tested on: Alcaligenes faecalis IFO 13111; experiment: MIC, antibacterial spectrum (nutrient agar); format: cell-based; details: IFO13111, nutrient agar pH 7.0, 10^6 CFU/ml, sodium salt, read-out: Minimal inhibitory concentration
Text: as §9

[18] = tested on: Staphylococcus aureus FDA 209P; experiment: MIC, antibacterial spectrum (nutrient agar); format: cell-based; details: FDA209P, nutrient agar pH 7.0, 10^6 CFU/ml, sodium salt, read-out: Minimal inhibitory concentration
Text: as §9

[19] = tested on: Salmonella typhimurium IFO 12529; experiment: MIC, antibacterial spectrum (nutrient agar); format: cell-based; details: Salmonella enterica, nutrient agar pH 7.0, 10^6 CFU/ml, sodium salt, read-out: Minimal inhibitory concentration
Text: as §9

Solubility = details: sodium salt
gram-positive bacteria = experiment: Antibacterial activity against gram-positive bacteria (statement in words); format: cell-based
Escherichia coli PG8 = experiment: Stability to β-lactamases, disc method, non-added control (Table 2); format: cell-based; details: PG8, read-out: Diameter of growth inhibition zone (by the disc method)
Description: as §6, §7, §8

Cephalosporinase [20] = target: T1, Cephalosporinase; experiment: Stability to β-lactamases, disc method, cephalosporinase (Table 2); format: cell-based; details: cephalosporinase 0.025 unit/ml; E. coli PG8; compound 100 g/ml (so in the source)
Description: as §6, §7, §8
(Note 3) Cephalosprinase is derived from Enterobacter cloacae, 0.025

T1 sequence (P05364 21-381): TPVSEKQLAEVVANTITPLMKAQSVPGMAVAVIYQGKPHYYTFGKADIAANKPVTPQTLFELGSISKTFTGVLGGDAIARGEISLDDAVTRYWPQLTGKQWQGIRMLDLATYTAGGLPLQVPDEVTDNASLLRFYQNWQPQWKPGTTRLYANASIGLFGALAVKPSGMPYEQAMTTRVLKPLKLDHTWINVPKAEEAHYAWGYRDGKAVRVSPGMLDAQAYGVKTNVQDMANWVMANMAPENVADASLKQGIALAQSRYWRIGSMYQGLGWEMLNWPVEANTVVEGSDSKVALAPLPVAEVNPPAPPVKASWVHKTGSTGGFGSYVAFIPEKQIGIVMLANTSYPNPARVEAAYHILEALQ
T2 sequence (P10424 44-306): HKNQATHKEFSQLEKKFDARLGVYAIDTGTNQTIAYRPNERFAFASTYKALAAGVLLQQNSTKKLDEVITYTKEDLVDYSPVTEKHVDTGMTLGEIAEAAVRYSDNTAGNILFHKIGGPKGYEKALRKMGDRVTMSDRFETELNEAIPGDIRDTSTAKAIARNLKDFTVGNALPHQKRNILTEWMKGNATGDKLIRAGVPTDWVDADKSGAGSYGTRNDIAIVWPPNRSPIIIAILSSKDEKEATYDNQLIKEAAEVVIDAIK

N[C@]1(NC=O)C(=O)N2C(C(=O)O)=C(CO)CSC21 (stereo partly drawn) [compound (II)]
zone of inhibition at 1000 µg/mL (Escherichia coli CP 13): 11 mm
zone of inhibition at 1000 µg/mL [1]: 19 mm
zone of inhibition at 1000 µg/mL [2]: < 8 mm
Stability to β-lactamases (β-lactamases): stable to various β-lactamases
stability in aqueous solution ([3]; compared with a cephem compound which is acetylated (--CH2OCOCH3 at 3-position)): remarkably more stable in aqueous solution
Diameter of growth inhibition zone (by the disc method) (Cephalosporinase [4]; compound (II) 1000 μg/ml): 19 mm
toxicity [5]: low toxicity
death [5]: no death was observed
Diameter of growth inhibition zone (by the disc method) (Penicillinase [6]; compound (II) 1000 μg/ml): 19 mm
antibacterial activity (gram-negative bacteria): exhibits antibacterial activity; also recorded: exhibits antimicrobial activity
zone of inhibition at 1000 µg/mL ([7]; P. aeruginosa C141, compound (II) 1000 μg/ml): 19 mm

CC(N)C(=O)NC(C)C(=O)NC(CCCNC(=N)N)C(O)CC(=O)OCC1=C(C(=O)O)N2C(=O)[C@@](NC=O)(NC(=O)CCCC(N)C(=O)O)C2SC1 (stereo partly drawn) [TAN-547B]
Stability ([3]; acidic aqueous solution): Unstable
Stability ([3]; basic aqueous solution): Unstable
Stability ([3]; neutral aqueous solution): slightly unstable

NC(CCCC(=O)N[C@]1(NC=O)C(=O)N2C(C(=O)O)=C(CO)CSC21)C(=O)O (stereo partly drawn) [7-FA-DCPC, 7-formylamino-deacetylcephalosporin C]
Diameter of growth inhibition zone (by the disc method) (Penicillinase [8]): 23 mm
Stability to β-lactamases (β-lactamases): stable to various β-lactamases
Stability to β-lactamases (β-lactamases; listed as compound (IV)): stable to β-lactamase producing strains
MIC [9]: 100 µg/mL
MIC [10]: 25 µg/mL
MIC [11]: 50 µg/mL
MIC [12]: 50 µg/mL
MIC [13]: 100 µg/mL
MIC [14]: 12.5 µg/mL
MIC [15]: 25 µg/mL
MIC [16]: 100 µg/mL
MIC [17]: 12.5 µg/mL
MIC [18]: 100 µg/mL
MIC [19]: 25 µg/mL
Solubility (Solubility; diethyl ether and ethyl acetate): Sparingly soluble
Solubility (Solubility; methanol): Soluble
Solubility (Solubility; water): Readily soluble
antibacterial activity (gram-positive bacteria): exhibits antibacterial activity
antibacterial activity (gram-positive bacteria; listed as compound (IV)): exhibits antimicrobial activity
toxicity [5]: low toxicity
death [5]: no death was observed
zone of inhibition at 100 µg/mL (Escherichia coli PG8): 23 mm
antibacterial activity (gram-negative bacteria): exhibits antibacterial activity
antibacterial activity (gram-negative bacteria; listed as compound (IV)): exhibits antimicrobial activity
Diameter of growth inhibition zone (by the disc method) (Cephalosporinase [20]): 23 mm

CC(N)C(=O)NC(C)C(=O)NC(C)C(=O)NC(CCCNC(=N)N)C(O)CC(=O)OCC1=C(C(=O)O)N2C(=O)[C@@H](NC(=O)CCCC(N)C(=O)O)C2SC1 (stereo partly drawn) [TAN-547F]
Stability ([3]; acidic aqueous solution): Slightly unstable
Stability ([3]; basic aqueous solution): Unstable
Stability ([3]; neutral aqueous solution): Slightly unstable

CC(N)C(=O)NC(C)C(=O)NC(C)C(=O)NC(CCCNC(=N)N)C(O)CC(=O)OCC1=C(C(=O)O)N2C(=O)[C@@](NC=O)(NC(=O)CCCC(N)C(=O)O)C2SC1 (stereo partly drawn) [TAN-547C]
Stability ([3]; acidic aqueous solution): Unstable
Stability ([3]; basic aqueous solution): Unstable
Stability ([3]; neutral aqueous solution): slightly unstable

CC(N)C(=O)NC(CCCNC(=N)N)C(O)CC(=O)OCC1=C(C(=O)O)N2C(=O)[C@@H](NC(=O)CCCC(N)C(=O)O)C2SC1 (stereo partly drawn) [TAN-547D]
Stability ([3]; acidic aqueous solution): Slightly unstable
Stability ([3]; basic aqueous solution): Unstable
Stability ([3]; neutral aqueous solution): Slightly unstable

CO[C@@]1(NC(=O)CCC[C@@H](N)C(=O)O)C(=O)N2C(C(=O)O)=C(COC(N)=O)CS[C@@H]21 [CMC, Cephamycin C]
Diameter of growth inhibition zone (by the disc method) (Penicillinase [8]): 30 mm
Diameter of growth inhibition zone (by the disc method) (Cephalosporinase [4]; other compounds 100 μg/ml): < 8 mm
Diameter of growth inhibition zone (by the disc method) (Penicillinase [6]; other compounds 100 μg/ml): 27.5 mm
zone of inhibition at 100 µg/mL (Escherichia coli PG8): 30 mm
Diameter of growth inhibition zone (by the disc method) (Cephalosporinase [20]): < 8 mm
zone of inhibition at 100 µg/mL [7]: 27.5 mm

N[C@H](CCCC(=O)N[C@@H]1C(=O)N2C(C(=O)O)=C(CO)CS[C@H]12)C(=O)O [DCPC, deacetylcephalosporin C]
Diameter of growth inhibition zone (by the disc method) (Penicillinase [8]): 30 mm
Diameter of growth inhibition zone (by the disc method) (Cephalosporinase [4]; other compounds 100 μg/ml): < 8 mm
Diameter of growth inhibition zone (by the disc method) (Penicillinase [6]; other compounds 100 μg/ml): 30 mm
zone of inhibition at 100 µg/mL (Escherichia coli PG8): 30 mm
Diameter of growth inhibition zone (by the disc method) (Cephalosporinase [20]): < 8 mm
zone of inhibition at 100 µg/mL [7]: 30 mm

CC(N)C(=O)NC(C)C(=O)NC(CCCNC(=N)N)C(O)CC(=O)OCC1=C(C(=O)O)N2C(=O)[C@@H](NC(=O)CCCC(N)C(=O)O)C2SC1 (stereo partly drawn) [TAN-547E]
Stability ([3]; acidic aqueous solution): Slightly unstable
Stability ([3]; basic aqueous solution): Unstable
Stability ([3]; neutral aqueous solution): Slightly unstable

CC(N)C(=O)NC(CCCNC(=N)N)C(O)CC(=O)OCC1=C(C(=O)O)N2C(=O)[C@@](NC=O)(NC(=O)CCCC(N)C(=O)O)C2SC1 (stereo partly drawn) [TAN-547A]
Stability ([3]; acidic aqueous solution): Unstable
Stability ([3]; basic aqueous solution): Unstable
Stability ([3]; neutral aqueous solution): slightly unstable
